pIC50: −log10 of the molar value.

The target in one experiment is T1, calpain-2 (Mus musculus, UniProt O08529).
T1 sequence (O08529 1-700): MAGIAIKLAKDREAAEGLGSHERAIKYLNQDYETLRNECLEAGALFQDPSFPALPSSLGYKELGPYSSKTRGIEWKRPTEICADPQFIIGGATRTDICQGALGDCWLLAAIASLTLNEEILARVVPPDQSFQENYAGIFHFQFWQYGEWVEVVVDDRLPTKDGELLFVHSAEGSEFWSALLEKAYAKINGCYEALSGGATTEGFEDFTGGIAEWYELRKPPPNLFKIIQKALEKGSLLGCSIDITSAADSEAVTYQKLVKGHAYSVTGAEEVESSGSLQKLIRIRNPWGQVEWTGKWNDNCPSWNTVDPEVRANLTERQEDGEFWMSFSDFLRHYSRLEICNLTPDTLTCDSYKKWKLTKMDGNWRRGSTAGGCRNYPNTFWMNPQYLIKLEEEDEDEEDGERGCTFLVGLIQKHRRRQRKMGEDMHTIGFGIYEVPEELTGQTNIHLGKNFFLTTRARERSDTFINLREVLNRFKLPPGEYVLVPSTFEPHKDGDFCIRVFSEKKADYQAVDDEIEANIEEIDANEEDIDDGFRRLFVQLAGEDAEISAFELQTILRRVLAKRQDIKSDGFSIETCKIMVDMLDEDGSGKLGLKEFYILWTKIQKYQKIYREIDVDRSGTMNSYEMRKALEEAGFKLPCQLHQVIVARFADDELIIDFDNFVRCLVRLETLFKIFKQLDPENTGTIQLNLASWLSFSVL
T1 sequence (O88456 1-268 partner): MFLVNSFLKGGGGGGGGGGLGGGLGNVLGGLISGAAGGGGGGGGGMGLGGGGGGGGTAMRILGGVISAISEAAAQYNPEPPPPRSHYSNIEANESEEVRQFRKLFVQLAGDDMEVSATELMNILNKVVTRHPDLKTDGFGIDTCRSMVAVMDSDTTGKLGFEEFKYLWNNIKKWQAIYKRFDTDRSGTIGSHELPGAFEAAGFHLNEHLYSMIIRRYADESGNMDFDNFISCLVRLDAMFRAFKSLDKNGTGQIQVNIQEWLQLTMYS
The experiment in a line: Calpain-2 activity in calpain-1 KO mouse cerebellar homogenate (2 mM Ca2+), Suc-Leu-Tyr-AMC cleavage. In kind it is biochemical. Details: Calpain-2 activity=calpain activity under 2000 uM Ca^2+ in calpain-1 KO mice; from tissue; host or cells: calpain-1 knock-out mouse cerebellar (P2) homogenate. As to the method:
Cerebellar homogenates from wild-type (WT) or calpain-1 Knock-out (KO) mice were incubated with 20 μM calcium to activate calpain-1 or with 2 mM calcium to activate calpain-2, respectively, and increasing concentrations of NA112 (12). Calpain activity was measured by the cleavage of Succinyl-Leu-Tyr-7-amino-4-methylcoumarin (Suc-Leu-Tyr-AMC), resulting in increased fluorescence. Activity is normalized to the value measured in the presence of vehicle (DMSO).
WT or calpain-1 KO mouse cerebellar P2 homogenate (crude synaptosomal fraction) were used for measuring inhibitory activity of compounds against the mouse endogenous calpain-1/-2. Each reaction contains 100 ul of WT or calpain-1 KO mouse cerebellar P2 homogenate+0, 20 or 2000 uM Ca^2++0-10,000 nM NA184.
Calpain-2 activity=calpain activity under 2000 uM Ca^2+ in calpain-1 KO mice

In another experiment the test system is TUNEL-positive cells. Kind of experiment: TUNEL staining of brain 24 h after TBI in WT mice. In kind it is in vivo. As to the method: Quantification of TUNEL staining 24 h after TBI plus i.p. injection of NA112 at 0.1 or 1.0 mg/kg. Total numbers of TUNEL-positive cells in 3 coronal sections (Bregma 0.50, −0.58, −1.58 mm) of each brain were counted and averaged. Results are means S.E.M. of 3 animals. * p<0.05 vs Vehicle. One-way ANOVA followed by Bonferroni test.
Vehicle (control liposomes) or 0.1 or 1 mg/kg of NA112 dissolved in liposomal formulation was injected 1 h after TBI in WT mice. Animals were sacrificed 24 h later and brains were stained with TUNEL staining to analyze the extent of cell death.
The number of TUNEL-positive cells in images similar to those shown in FIG. 12 was quantified (FIG. 13). Results in FIG. 13 are Means±S.E.M. of 3 different animals.
Quantification of TUNEL staining 24 h after TBI plus i.p. injection of WT mice with NA184 at indicated doses 1 h after TBI. Total numbers of TUNEL-positive cells in 3 coronal sections (Bregma 0.50, −0.58, −1.58 mm) of each brain were counted and averaged. Results are means±S.E.M. of 3-6 animals. * p<0.05, ** p<0.01, vs Vehicle. One-way ANOVA followed by Bonferroni test (FIG. 20).

`CCC(NC(=O)[C@H](CC(C)C)NC(=O)NCc1ccccc1)C(=O)C(=O)NCc1cc(OC)cc(OC)c1` (mixture of isomers) [NA112, (2S)-2-(3-benzylureido)-N-(1-((3,5-dimethoxybenzyl)amino)-1,2-dioxopentan-3-yl)-4-methylpentanamide]: the pIC50 at calpain-2 (read-out: IC50, 2000 μM Ca^2+ (calpain-1 KO), calpain-1 KO mouse cerebellar homogenate, 2 mM calcium) was 6.97. In the experiment on TUNEL-positive cells (liposomal formulation, 0.1 or 1 mg/kg 1 h after TBI, 24 h later), the TUNEL staining entry was “decrease in TUNEL staining”.
`CCC(NC(=O)[C@H](CC(C)C)NC(=O)NCc1ccccc1)C(=O)C(=O)NCc1cccc(Cl)c1OC` (stereo partly drawn) [NA184, (2S)-2-(3-benzylureido)-N-(1-((3-chloro-2-methoxybenzyl)amino)-1,2-dioxopentan-3-yl)-4-methylpentanamide]: at calpain-2 (mouse cerebellar P2 homogenate), the “Ratio (IC50 calpain-1/calpain-2)” value worked out at 21. This compound came in with a median effective dose (ED50) in the experiment on TUNEL-positive cells (Mus musculus, ip, i.p. 1 h after TBI, DMSO solution, TUNEL 24 h after TBI) of roughly 0.13 mg/kg.

The values are drawn from patent US12606520B2, “Calpain-2 inhibitor compounds and methods of treatment” (WESTERN UNIVERSITY OF HEALTH SCIENCES, priority 2020, dated 2026).
